{"source": "patent US20210292807A1", "about": "“METHOD FOR TESTING ANTIMICROBIAL SUSCEPTIBILITY” (priority 2017, published 2021)", "system": "Klebsiella isolates", "assay": "Acoustic flow cytometry-assisted susceptibility test (FAST), MICFAST and S/NS, Klebsiella isolates", "type": "cell-based, Klebsiella pneumoniae, Klebsiella oxytoca", "method": "A 1 mL aliquot of bacterial suspension was centrifuged, washed and resuspended in 1 mL filtered Hank's Buffered Salt Solution (HBSS; comprising about 0.137 M NaCl, about 5.4 mM KCl, about 0.25 mM Na2HPO4, about 0.1 g Glucose, about 0.44 mM KH2PO4, 1.3 mM CaCl2), 1.0 mM MgSO4, about 1.3 mM CaCl2), 1.0 mM MgSO4, and about 4.2 mM NaHCO3) and diluted in series (e.g., in a 1:10 serial dilution) to a final 1:1000 dilution.\nOne μL (microliter) of SYTO 9 stain (e.g., ThermoFisher Scientific) working stock solution was added to the final dilution at a final concentration of 5 μM and incubated for 5 minutes before counting bacterial events by acoustic flow cytometer (AFC) (Attune, ThermoFisher, Eugene, Oreg., USA), which was used to prepare a standardised inoculum density for susceptibility testing.\nAn aliquot of bacterial suspension was added to 50 mL centrifuge tubes (Corning, N.Y.) containing 9 mL of pre-warmed (37° C.) filtered MHB to produce a final density of 5×10^5-1×10^6 bacteria per mL. This suspension was incubated at 37° C. with shaking at 100 RPM for 30 minutes to obtain an actively dividing culture. An aliquot of antibiotic working solution from the previously described dilution series (appropriate to the concentration tested) was then added to each tube before a further 30-minute incubation with shaking, during which time a microbroth dilution (MBD) plate was prepared for overnight incubation at 37° C. as previously described in Clinical and Laboratory Standards Institute (2015) Performance Standards for Antimicrobial Susceptibility Testing: Informational Supplement. CLSI document M100-S25. Clinical and Laboratory Standards Institute, 950, West Valley Road, Suite 2500, Wayne, Pa., 19087, USA.\nOne millilitre of bacterial suspension from each antibiotic concentration was harvested by centrifugation at 7800×g for 5 minutes, washed and diluted 1:10 in filtered HBSS in a light-impermeable microcentrifuge tube, then stained with SYTO 9 stain at a final concentration of 5 μM, and incubated for 5 min before AFC sampling. Hoechst 33342 dye (NucBlue, Thermo Fisher Scientific, Eugene, Oreg., USA) and a SYTO 9/propidium iodide (PI) combination (Thermo Fisher Scientific) were used in a series of replicate experiments.\nThe acoustic flow cytometer employed was Attune acoustic flow cytometer (Thermo Fisher Scientific), having installed therein a 488 nm blue laser with a 530/30 nm filter on the photomultiplier tube for measuring fluorescence of cells assayed. Alternatively, the Attune NxT acoustic flow cytometer (Thermo Fisher Scientific) can be employed. AFC was calibrated at the beginning of each acquisition session using fluorescently labelled size calibration beads, in accordance with the manufacturer's instructions (ThermoFisher Scientific). The AFC settings were as follows: Forward Scatter (FSC) voltage 3100, FSC threshold 4×1000 AND, blue laser 1 (BL1—530/30 nm) voltage 1900, BL1 threshold 1×1000 AND, high sensitivity, flow rate 25 μL/minute, and an acquisition volume of 125 μL. Acquisition was halted after either collection of 20,000 events across all gates, or after 3 minutes, with each sample acquired in technical triplicate.\nCollected data was exported in the FCS 3.0 file format and analysed in Flow v10.0 (FlowJo LLC, Ashland, Oreg., USA) by a single user, blinded to the MIC results by BMD (MICBMD).\nSubsequent to quantitative MICFAST determination, the acoustic flow cytometer data were re-analysed in silico to produce a limited sub-set for qualitative susceptibility determination. The six antibiotic dilutions (0 mg/L, 0.25 mg/L, 1 mg/L, 2 mg/L, 4 mg/L and 16 mg/L) most relevant to qualitative susceptibility assessment were used. In silico analysis was restricted to the first technical triplicate of each recorded sample. Gating strategies remained consistent, with the addition of a gate restricting analysis to only those events recorded in the first 60 seconds of acquisition.", "key": {"[1]": {"settings": "K. pneumoniae isolate 18397, biological replicates"}, "[2]": {"settings": "K. pneumoniae isolate 43292, biological replicates"}, "[3]": {"settings": "K. pneumoniae isolate 43358, biological replicates"}, "[4]": {"settings": "K. pneumoniae isolate 44271, biological replicates"}, "[5]": {"settings": "K. pneumoniae isolate ATCC 700603, biological replicates"}, "[6]": {"settings": "K. pneumoniae isolate ATCC BAA1705, biological replicates"}, "[7]": {"settings": "K. pneumoniae isolate K1, biological replicates"}, "[8]": {"settings": "K. pneumoniae isolate K14, biological replicates"}, "[9]": {"settings": "K. pneumoniae isolate KS11, biological replicates"}}, "note": "Several values for one entry are separate records, joined by “and”; a condition that tells them apart may be missing. Equal values may be shown once. Read-outs that look alike come from different tables or passages of the source."}
{"smiles": "C[C@@H](O)[C@H]1C(=O)N2C(C(=O)O)=C(S[C@@H]3CN[C@H](C(=O)N(C)C)C3)[C@H](C)[C@H]12", "note": "[meropenem]", "values": [{"measurement": "MICFAST", "setting": "K. pneumoniae ATCC 700603 (carbapenem susceptible control), limited clinical screen concentrations", "value": "≤0.25"}, {"measurement": "MICFAST", "setting": "K. pneumoniae ATCC BAA1705 (carbapenem resistant control), limited clinical screen concentrations", "value": ">16"}, {"measurement": "FAST S/NS", "setting": "[1]", "value": "S (S: MIC ≤2 mg/L)"}, {"measurement": "MICFAST", "setting": "[1]", "value": "≤0.25", "unit": "mg/L"}, {"measurement": "FAST S/NS", "setting": "[2]", "value": "S (S: MIC ≤2 mg/L)"}, {"measurement": "MICFAST", "setting": "[2]", "value": "≤0.25", "unit": "mg/L"}, {"measurement": "FAST S/NS", "setting": "[3]", "value": "S (S: MIC ≤2 mg/L)"}, {"measurement": "MICFAST", "setting": "[3]", "value": "≤0.25", "unit": "mg/L"}, {"measurement": "FAST S/NS", "setting": "[4]", "value": "S (S: MIC ≤2 mg/L)"}, {"measurement": "MICFAST", "setting": "[4]", "value": 0.5, "unit": "mg/L"}, {"measurement": "FAST S/NS", "setting": "[5]", "value": "S (S: MIC ≤2 mg/L)"}, {"measurement": "MICFAST", "setting": "[5]", "value": "≤0.25", "unit": "mg/L"}, {"measurement": "FAST S/NS", "setting": "[6]", "value": "NS (NS: MIC >2 mg/L)"}, {"measurement": "MICFAST", "setting": "[6]", "value": 8, "unit": "mg/L"}, {"measurement": "FAST S/NS", "setting": "[7]", "value": "NS (NS: MIC >2 mg/L)"}, {"measurement": "MICFAST", "setting": "[7]", "value": "64 mg/L (2×) and 32 mg/L"}, {"measurement": "FAST S/NS", "setting": "[8]", "value": "NS (NS: MIC >2 mg/L)"}, {"measurement": "MICFAST", "setting": "[8]", "value": 256, "unit": "mg/L"}, {"measurement": "MICFAST", "setting": "K. pneumoniae isolate K16 (IMP-4), rough colony variant", "value": 64, "unit": "mg/L"}, {"measurement": "MICFAST", "setting": "K. pneumoniae isolate K16 (IMP-4), smooth colony variant", "value": 2, "unit": "mg/L"}, {"measurement": "MIC", "setting": "K. pneumoniae isolate K16, subculture of Day 1 meropenem-exposed culture, read-out: MIC by FAST on Day 2", "value": 4, "unit": "µg/mL"}, {"measurement": "MICFAST", "setting": "K. pneumoniae isolate KS1, biological replicates", "value": "4 mg/L and 1 mg/L and 2 mg/L"}, {"measurement": "FAST S/NS", "setting": "[9]", "value": "S (S: MIC ≤2 mg/L)"}, {"measurement": "MICFAST", "setting": "[9]", "value": "1 mg/L (2×) and 2 mg/L"}, {"measurement": "MIC", "setting": "K. pneumoniae susceptible type strain ATCC 700603, read-out: isolate's MIC (new contouring focus formed, FIG. 3A)", "value": 0.25, "unit": "µg/mL"}, {"measurement": "susceptibility-associated signature by AFC bi-axial plot (FIG. 3B)", "setting": "highly resistant clinical K. pneumoniae strain K8, clinically relevant meropenem concentrations", "value": "absence of susceptibility-associated signature"}, {"measurement": "FAST S/NS", "setting": "isolate 194, Sweden, VIM", "value": "NS (NS = MIC >2 mg/L)"}, {"measurement": "MICFAST", "setting": "isolate 194, Sweden, VIM", "value": 16, "unit": "mg/L"}, {"measurement": "FAST S/NS", "setting": "isolate 374, Sweden, VIM", "value": "NS (NS = MIC >2 mg/L)"}, {"measurement": "MICFAST", "setting": "isolate 374, Sweden, VIM", "value": 32, "unit": "mg/L"}, {"measurement": "FAST S/NS", "setting": "isolate 3354, Australia", "value": "S (S = MIC ≤2 mg/L)"}, {"measurement": "MICFAST", "setting": "isolate 3354, Australia", "value": 0.5, "unit": "mg/L"}, {"measurement": "FAST S/NS", "setting": "isolate 10924, Sweden, KPC", "value": "S (S = MIC ≤2 mg/L)"}, {"measurement": "MICFAST", "setting": "isolate 10924, Sweden, KPC", "value": 0.5, "unit": "mg/L"}, {"measurement": "FAST S/NS", "setting": "isolate 18397, Australia", "value": "S (S = MIC ≤2 mg/L)"}, {"measurement": "MICFAST", "setting": "isolate 18397, Australia", "value": "≤0.25", "unit": "mg/L"}, {"measurement": "FAST S/NS", "setting": "isolate 43288, Australia", "value": "S (S = MIC ≤2 mg/L)"}, {"measurement": "MICFAST", "setting": "isolate 43288, Australia", "value": "≤0.25", "unit": "mg/L"}, {"measurement": "FAST S/NS", "setting": "isolate 43292, Australia", "value": "S (S = MIC ≤2 mg/L)"}, {"measurement": "MICFAST", "setting": "isolate 43292, Australia", "value": "≤0.25", "unit": "mg/L"}, {"measurement": "FAST S/NS", "setting": "isolate 43358, Australia", "value": "S (S = MIC ≤2 mg/L)"}, {"measurement": "MICFAST", "setting": "isolate 43358, Australia", "value": "≤0.25", "unit": "mg/L"}, {"measurement": "FAST S/NS", "setting": "isolate 43854, Australia", "value": "S (S = MIC ≤2 mg/L)"}, {"measurement": "MICFAST", "setting": "isolate 43854, Australia", "value": "≤0.25", "unit": "mg/L"}, {"measurement": "FAST S/NS", "setting": "isolate 44271, Australia", "value": "S (S = MIC ≤2 mg/L)"}, {"measurement": "MICFAST", "setting": "isolate 44271, Australia", "value": 0.5, "unit": "mg/L"}, {"measurement": "FAST S/NS", "setting": "isolate 51575, Sweden, ESBL", "value": "S (S = MIC ≤2 mg/L)"}, {"measurement": "MICFAST", "setting": "isolate 51575, Sweden, ESBL", "value": "≤0.25", "unit": "mg/L"}, {"measurement": "FAST S/NS", "setting": "isolate 70708, Sweden, KPC", "value": "NS (NS = MIC >2 mg/L)"}, {"measurement": "MICFAST", "setting": "isolate 70708, Sweden, KPC", "value": 32, "unit": "mg/L"}, {"measurement": "FAST S/NS", "setting": "isolate 71076, Sweden, KPC", "value": "NS (NS = MIC >2 mg/L)"}, {"measurement": "MICFAST", "setting": "isolate 71076, Sweden, KPC", "value": 32, "unit": "mg/L"}, {"measurement": "FAST S/NS", "setting": "isolate 200822, Sweden, KPC", "value": "NS (NS = MIC >2 mg/L)"}, {"measurement": "MICFAST", "setting": "isolate 200822, Sweden, KPC", "value": 8, "unit": "mg/L"}, {"measurement": "FAST S/NS", "setting": "isolate 270902, England", "value": "S (S = MIC ≤2 mg/L)"}, {"measurement": "MICFAST", "setting": "isolate 270902, England", "value": "≤0.25", "unit": "mg/L"}, {"measurement": "FAST S/NS", "setting": "isolate 500638, Sweden, pAmpC", "value": "S (S = MIC ≤2 mg/L)"}, {"measurement": "MICFAST", "setting": "isolate 500638, Sweden, pAmpC", "value": 2, "unit": "mg/L"}, {"measurement": "FAST S/NS", "setting": "isolate 515870, Sweden, ESBL", "value": "S (S = MIC ≤2 mg/L)"}, {"measurement": "MICFAST", "setting": "isolate 515870, Sweden, ESBL", "value": "≤0.25", "unit": "mg/L"}]}
